One data set relates to HDAC. As to the kind of experiment: HDAC fluorimetric assay kit (AK-500, Biomol), HeLa nuclear extract. Format: biochemical. The protocol:
HDAC inhibitors were screened using an HDAC fluorimetric assay kit (AK-500, Biomol, Plymouth Meeting, Pa.). […] Each assay was setup as follows: Defrosted all kit components and kept on ice until use. Diluted HeLa nuclear extract 1:29 in Assay Buffer (50 mM Tris/Cl, pH 8.0, 137 mM NaCl, 2.7 mM KCl, 1 mM MgCl2). Prepared dilutions of Trichostatin A (TSA, positive control) and tested compounds in assay buffer (5× of final concentration). Diluted Fluor de LysTM Substrate in assay buffer to 100 uM (50 fold=2× final). Diluted Fluor de LysTM developer concentrate 20-fold (e.g. 50 μl plus 950 μl Assay Buffer) in cold assay buffer. Second, diluted the 0.2 mM Trichostatin A 100-fold in the 1× Developer (e.g. 10 μl in 1 ml; final Trichostatin A concentration in the 1× Developer=2 μM; final concentration after addition to HDAC/Substrate reaction=1 μM). Added Assay buffer, diluted trichostatin A or test inhibitor to appropriate wells of the microtiter plate. Added diluted HeLa extract or other HDAC sample to all wells except for negative controls. Allowed diluted Fluor de LysTM Substrate and the samples in the microtiter plate to equilibrate to assay temperature (e.g. 25 or 37° C. Initiated HDAC reactions by adding diluted substrate (25 μl) to each well and mixing thoroughly. Allowed HDAC reactions to proceed for 1 hour and then stopped them by addition of Fluor de LysTM Developer (50 μl). Incubated plate at room temperature (25° C.) for 10-15 min. Read samples in a microtiter-plate reading fluorimeter capable of excitation at a wavelength in the range 350-380 nm and detection of emitted light in the range 440-460 nm.

The target in another data set is T1, CDK2/cyclinE (Homo sapiens, UniProt P24941).
T1 construct: C-terminal 6His-tagged, recombinant full-length CDK2 (MW=34 kDa); 6His (C); made in house; host or cells: Sf21 cells (baculovirus)
As to the kind of experiment: CDK activity assay with p33 ATP, CDK2/cyclinE. It counts as biochemical. The conditions noted are these: 1 μM ATP. The protocol: CDK2/cyclinE (Accession Number for CDK2; EMBL M68520, for cyclinE1; GenBank NM_001238):
C-terminal 6His-tagged, recombinant full-length CDK2 (MW=34 kDa) in complex with N-terminal GST-tagged, recombinant full-length cyclinE1 (MW=74 kDa) were expressed with baculovirus system in Sf21 cells. Recombinant proteins were purified using Ni2+/NTA agarose and the purity of recombinant protein complex was measured to be around 76% by SDS-PAGE and Coomassie blue staining. Specific Activity of recombinant CDK2/cyclinE was 1336 U/mg, where one unit of CDK2/cylinE1 activity is defined as 1 nmol phosphate incorporated into 0.1 mg/ml histone H1 per minute at 30° C. with a final ATP concentration of 100 μM. Enzyme was stored with concentration of 0.1 mg/ml in 50 mM Tris/HCl pH 7.5, 150 mM NaCl, 0.03% Brij-35, 0.1 mM EGTA, 0.2 mM PMSF, 1 mM benzamidine, 0.1% 2-mercaptoethanol, 270 mM sucrose.

pIC50: −log10 of the molar value.

`CC(C)(C)c1cnc(CSc2cnc(NC(=O)C3CCN(CCCC(=O)NO)CC3)s2)o1` [Compound 1, N-(5-((5-tert-butyloxazol-2-yl)methylthio)thiazol-2-yl)-1-(4-(hydroxyamino)-4-oxobutyl)piperidine-4-carboxamide] yielded a melting point of 176 to 180 °C. The same compound had a negative logarithm of the IC50 (pIC50) in the data set with HDAC of less than 5.00. In addition, the negative-log IC50 (pIC50) against CDK2/cyclinE is more than 7.00.

In turn, `CC(C)(C)c1cnc(CSc2cnc(NC(=O)C3CCN(CCCCC(=O)NO)CC3)s2)o1` [Compound 2, N-(5-((5-tert-butyloxazol-2-yl)methylthio)thiazol-2-yl)-1-(5-(hydroxyamino)-5-oxopentyl)piperidine-4-carboxamide] returned a melting point of 93 to 97 °C. In the data set with HDAC, this compound gave a pIC50 of 5.00 to 6.00. Also, at CDK2/cyclinE, the pIC50 is more than 7.00.

Regarding `CC(C)(C)c1cnc(CSc2cnc(NC(=O)C3CCN(CCCCCC(=O)NO)CC3)s2)o1` [Compound 3, N-(5-((5-tert-butyloxazol-2-yl)methylthio)thiazol-2-yl)-1-(6-(hydroxyamino)-6-oxohexyl)piperidine-4-carboxamide], the melting point fell in the range of 127 to 130 °C. Moreover, the negative-log IC50 (pIC50) with HDAC is 5.00 to 6.00. Besides, at CDK2/cyclinE, the pIC50 is more than 7.00.

For `CC(C)(C)c1cnc(CSc2cnc(NC(=O)C3CCN(CCCCCCC(=O)NO)CC3)s2)o1` [Compound 4, N-(5-((5-tert-butyloxazol-2-yl)methylthio)thiazol-2-yl)-1-(7-(hydroxyamino)-7-oxoheptyl)piperidine-4-carboxamide], the melting point fell in the range of 113 to 115 °C. In addition, the pIC50 in the data set on HDAC was 6.00 to 7.00. This compound also had a pIC50 at CDK2/cyclinE of more than 7.00.

For `CC(C)(C)c1cnc(CSc2cnc(NC(=O)Cc3ccc(OCCCCC(=O)NO)cc3)s2)o1` [Compound 10, 5-(4-(2-(5-((5-tert-butyloxazol-2-yl)methylthio)thiazol-2-ylamino)-2-oxoethyl)phenoxy)-N-hydroxypentanamide], the values for the pIC50 with HDAC and on CDK2/cyclinE were 6.00 to 7.00 and more than 7.00, respectively.

Consider `CC(C)(C)c1cnc(CSc2cnc(NC(=O)Cc3ccc(OCCCCCC(=O)NO)cc3)s2)o1` [Compound 11], for which the pIC50 in the data set with HDAC was 6.00 to 7.00; against CDK2/cyclinE, more than 7.00.

Compound `CC(C)(C)c1cnc(CSc2cnc(NC(=O)CCCNCCCCCC(=O)NO)s2)o1` [Compound 16, 6-(4-(5-((5-tert-butyloxazol-2-yl)methylthio)-thiazol-2-ylamino)-4-oxobutylamino)-N-hydroxyhexanamide] showed a negative logarithm of the IC50 (pIC50) with HDAC of 6.00 to 7.00.

`CC(C)(C)c1cnc(CSc2cnc(NC(=O)CCCNCCCCCCC(=O)NO)s2)o1` [Compound 17, 7-(4-(5-((5-tert-butyloxazol-2-yl)methylthio)-thiazol-2-ylamino)-4-oxobutylamino)-N-hydroxyheptanamide]: the pIC50 is 6.00 to 7.00 with HDAC and more than 7.00 against CDK2/cyclinE.

As to `CC(C)(C)c1cnc(CSc2cnc(NC(=O)c3ccc(/C=C/C(=O)NO)cc3)s2)o1` [Compound 18, (E)-N-(5-((5-tert-butyloxazol-2-yl)methylthio)thiazol-2-yl)-4-(3-(hydroxylamino)-3-oxoprop-1-enyl)benzamide], the results for the pIC50 in the data set on HDAC and against CDK2/cyclinE were 6.00 to 7.00 and more than 7.00, respectively.

Consider `CC(C)(C)c1cnc(CSc2cnc(NC(=O)c3cccc(/C=C/C(=O)NO)c3)s2)o1` [Compound 19, (E)-N-(5-((5-tert-butyloxazol-2-yl)methylthio)-thiazol-2-yl)-3-(3-(hydroxylamino)-3-oxoprop-1-enyl)benzamide], for which the values for the pIC50 in the data set with HDAC and against CDK2/cyclinE were 6.00 to 7.00 and more than 7.00, respectively.

As for `CC(C)(C)c1cnc(CSc2cnc(NCC3CCN(c4ncc(C(=O)NO)cn4)CC3)s2)o1` [Compound 21, 2-(4-((5-((5-tert-butyloxazol-2-yl)methylthio)-thiazol-2-ylamino)methyl)piperidin-1-yl)-N-hydroxypyrimidine-5-carboxamide], the pIC50 with HDAC and against CDK2/cyclinE was more than 7.00 in each case.

As to `CC(C)(C)c1cnc(CSc2nnc(NC(=O)CCCCCCC(=O)NO)s2)o1` [Compound 22, N^1-(5-((5-tert-butyloxazol-2-yl)methylthio)-1,3,4-thiadiazol-2-yl)-N^8-hydroxyoctanediamide], the pIC50 on CDK2/cyclinE was 5.00 to 6.00.

Consider `CC(C)(C)c1cnc(CSc2cnc(NC(=O)c3ccc(OCCCCC(=O)NO)cc3)s2)o1` [Compound 24, N-(5-((5-tert-butyloxazol-2-yl)methylthio)thiazol-2-yl)-4-(5-(hydroxyamino)-5-oxopentyloxy)benzamide], for which, at CDK2/cyclinE, the pIC50 was more than 7.00.

As for `CC(C)(C)c1cnc(CSc2cnc(NC(=O)c3ccc(OCCCCCC(=O)NO)cc3)s2)o1` [Compound 25, N-(5-((5-tert-butyloxazol-2-yl)methylthio)thiazol-2-yl)-4-(6-(hydroxyamino)-6-oxohexyloxy)benzamide], the figures for the pIC50 in the data set on HDAC and against CDK2/cyclinE were 6.00 to 7.00 and more than 7.00, respectively.

Turning to `CC(Sc1cnc(NC(=O)Cc2ccc(OCCCC(=O)NO)cc2)s1)c1ncc(C(C)(C)C)o1` (centres unmarked) [Compound 26, 4-(4-(2-(5-(1-(5-Tert-butyloxazol-2-yl)ethylthio)-thiazol-2-ylamino)-2-oxoethyl)phenoxy)-N-hydroxybutanamide], the pIC50 was 6.00 to 7.00 in the data set with HDAC and more than 7.00 against CDK2/cyclinE.

Take `CC(C)(C)c1cnc(CSc2cnc(NC(=O)C(C)(C)c3ccc(OCCCC(=O)NO)cc3)s2)o1` [Compound 27, 4-(4-(1-(5-((5-Tert-butyloxazol-2-yl)methylthio)-thiazol-2-ylamino)-2-methyl-1-oxopropan-2-yl)phenoxy)-N-hydroxybutanamide]: the pIC50 with HDAC is 6.00 to 7.00; against CDK2/cyclinE, more than 7.00.

`CC(C)(C)c1cnc(CSc2cnc(NC(=O)Oc3ccc(OCCCC(=O)NO)cc3)s2)o1` [Compound 28, 4-(4-(hydroxyamino)-4-oxobutoxy)phenyl-5-((5-tert-butyloxazol-2-yl)methylthio)thiazol-2-ylcarbamate] gave a pIC50 against CDK2/cyclinE of more than 7.00.

For the compound `CC(C)(C)c1cnc(CSc2cnc(NC(=O)Nc3ccc(OCCCC(=O)NO)cc3)s2)o1` [Compound 29, 4-(4-(3-(5-((5-Tert-butyloxazol-2-yl)methylthio)-thiazol-2-yl)ureido)phenoxy)-N-hydroxybutanamide], the pIC50 is 6.00 to 7.00 in the data set with HDAC and more than 7.00 against CDK2/cyclinE.

As for `CC(C)(C)c1cnc(CSc2nnc(NC(=O)Cc3ccc(OCCCC(=O)NO)cc3)s2)o1` [Compound 30, 4-(4-(2-(5-((5-tert-butyloxazol-2-yl)methylthio)-1,3,4-thiadiazol-2-ylamino)-2-oxoethyl)phenoxy)-N-hydroxybutanamide], the pIC50 in the data set with HDAC is 6.00 to 7.00; on CDK2/cyclinE it was 5.00 to 6.00.

`CC(C(=O)Nc1ncc(SCc2ncc(C(C)(C)C)o2)s1)c1ccc(OCCCC(=O)NO)cc1` (centres unmarked) [Compound 31, 4-(4-(1-(5-((5-Tert-butyloxazol-2-yl)methylthio)-thiazol-2-ylamino)-1-oxopropan-2-yl)phenoxy)-N-hydroxybutanamide]: the pIC50 with HDAC and against CDK2/cyclinE was more than 7.00 throughout.

As to `CC(C)(C)c1cnc(CSc2cnc(NS(=O)(=O)c3cccc(/C=C/C(=O)NO)c3)s2)o1` [Compound 32, (E)-3-(3-(N-(5-((5-tert-butyloxazol-2-yl)methylthio)thiazol-2-yl)sulfamoyl)phenyl)-N-hydroxyacrylamide], the results for the pIC50 in the data set on HDAC and against CDK2/cyclinE were more than 7.00 and 5.00 to 6.00, respectively.

On to `CC(C)(C)c1cnc(CSc2cnc(NS(=O)(=O)c3ccc(C(=O)NO)cc3)s2)o1` [Compound 33, 4-(N-(5-((5-tert-butyloxazol-2-yl)methylthio)-thiazol-2-yl)sulfamoyl)-N-hydroxybenzamide], for which, in the data set on HDAC, the pIC50 was 6.00 to 7.00. The “CDK2/cyclinE IC50” value at CDK2/cyclinE is listed as “No”.

In the data set on HDAC, `CC(C)(C)c1cnc(CSc2cnc(NS(=O)(=O)c3ccc(/C=C/C(=O)NO)cc3)s2)o1` [Compound 34, (E)-3-(4-(N-(5-((5-tert-butyloxazol-2-yl)methylthio)-thiazol-2-yl)sulfamoyl)phenyl)-N-hydroxyacrylamide] gave a negative-log IC50 (pIC50) of more than 7.00. Further, the “CDK2/cyclinE IC50” value on CDK2/cyclinE was “No”.

With `CC(C)(C)c1cnc(CSc2cnc(NC(=O)c3ccc(OCCCC(=O)NO)cc3)s2)o1` [Compound 39], the pIC50 was 6.00 to 7.00 with HDAC and more than 7.00 against CDK2/cyclinE.

`CC(C)(C)c1cnc(CSc2cnc(NC(=O)c3ccc(OCCCCCCC(=O)NO)cc3)s2)o1` [Compound 40]: the pIC50 with HDAC is 6.00 to 7.00; against CDK2/cyclinE, more than 7.00.

Broadly, the melting point is the temperature of the solid-liquid transition. A word on the pIC50: it is the negative decadic logarithm of the IC50, by convention in mol/L. Low values mean a large IC50, high ones a small IC50.

The values above are taken from patent US8563741B2, “CDK inhibitors containing a zinc binding moiety” (Curis, Inc., priority 2007, dated 2013).
